From patent publication US8436154B2, “Crystallizing method of erythromycin” (Sunshine Lake Pharma Co., Ltd., priority 2008, dated 2013)
Read-outs that look alike come from different tables or passages of the source.

Tests used:
[1] = microbiological titre of erythromycin crystals; assay type: cell-based; details: dried erythromycin crystals recrystallized from dichloromethane-containing solvent
[2] = erythromycin crystals of CN1513864A, recrystallized from acetone and water; cited from earlier work

Substance | microbiological titre [1] [μ/mg] | microbiological titre [2]
erythromycin [Example 3] | 941 | 
erythromycin [Example 1] | 948 | 
erythromycin [erythromycin crystals] |  | less than 930 μ/mg
erythromycin [Example 4] | 946 | 
erythromycin [Example 5] | 943 | 
erythromycin [Example 2] | 955 | 
